Test results taken from patent US20150164871A1, “Pharmaceutical Compositions for Combination Therapy” (Acesion Pharma, priority 2012, published 2015).
“Also recorded” adds a separate entry of the source.

Columns and labels:
[1] = tested on: Isolated, perfused female guinea pig hearts; test: Effect on AF duration (ACh plus burst pacing) in Langendorff heart; details: for reduction of AF duration as compared to time matched controls (in words): administered alone, ICA 100 nmol/L, flecainide 1 μmol/L, ranolazine 3 μmol/L; for Log AF duration: log(10)-transformed, means±SEM, 1 μmol/L ACh, burst pacing 50 Hz, ICA 0.1 μM, flecainide 1 μM, ranolazine 3 μM
Protocol: (§1) The isolated heart was prepared as follows. Guinea pigs weighing between 350 and 600 g were anesthetized with i.p. injection of 200 mg/kg pentobarbital. In addition, 1000 IU/kg heparin were injected i.p. Respiration was maintained by artificial ventilation(atm air) through a cannula in the trachea (volume, 12 ml/kg; rate, 60 strokes/min). Upon thoracotomy, a perfusion cannula was inserted and fixed in the aorta for retro-grade perfusion. Hearts were mounted in a vertical Langendorff set-up (Hugo Sachs-Harvard Apparatus GmbH, March-Hugstetten, Germany) and perfused with Krebs-Henseleit solution: 120.4 mM NaCl, 4.0 mM KCl, 2.5 mM CaCl2, 0.6 mM MgSO4, 15.3 mM NaHCO3, 0.6 mM NaH2PO4, and 11.5 mM glucose, pH 7.4, at constant oxygenation with O2/CO2 in a 95/5% mixture at 37° C. Four monophasic action potential (MAP) electrodes were placed on the left atrium, the right atrium, the left ventricle, and right ventricle, respectively. A pacing electrode was placed on the right atrium. The electro-cardiogram (ECG) was obtained with three ECG electrodes placed in close proximity to the heart. All data were acquired using the 16-channel PowerLab system (ADInstruments, Oxfordshire, UK). Pacing stimuli were twice the diastolic threshold and with a duration of 2 milliseconds (ms) unless otherwise stated.
(§2) The aERP was measured (10 basic stimuli [called S1] followed by premature S2 stimuli applied with 2-ms decrements) immediately before and at the end of the 30-minute period at pacing rates of 5 Hz and 10 Hz. After the 30 minutes of perfusion with either 100 nmol/L N-(pyridin-2-yl)-4-(pyridin-2-yl)thiazol-2-amine (ICA), 1 μmol/L flecainide, or 3 μmol/L ranolazine, or vehicle, 1 μmol/L ACh was added to the perfusate and induction of AF was attempted 40 times with burst-pacing (50 Hz) for 2 seconds or until sustained (duration>3 min) AF was obtained (test compound dissolved in DMSO in a stock concentration of 10 mMol/L). ICA in a concentration of 100 nmol/L was then tested in combination with either 1 μmol/L flecainide or 3 μmol/L ranolazine using the same protocol as described above in this section.

[2] = tested on: Isolated, perfused female guinea pig hearts; test: Effect on atrial effective refractory period (aERP) in Langendorff heart; details: for prolongation of aERP from baseline values as compared to time matched controls (in words): administered alone, ICA 100 nmol/L, flecainide 1 μmol/L, ranolazine 3 μmol/L; for percentual prolongation of aERP after 30 minutes of perfusion as compared to the baseline: ICA 0.1 μM, flecainide 1 μM, ranolazine 3 μM, ±SEM
Protocol: as §1, §2

[3] = tested on: Isolated, perfused female guinea pig hearts; test: Dose finding: cardioversion of acetylcholine/burst-pacing induced AF in Langendorff heart; details: for cardioversion obtained (animals converted out of animals): within 30 min, AF induced by 1 μmol/L ACh and burst pacing
Protocol: as §1
Isolated, perfused female guinea pig hearts from Dunkin Hartley strain (HsdPoc:DH) continuously paced on the right atrium (300 bpm) were allowed to stabilize, and the atrial effective refractory period (aERP) was measured. AF was induced by 1 μmol/L acetylcholine (ACh) combined with burst pacing (50 Hz, 10V). When sustained (>3minutes) AF was obtained, the test compound from a stock concentration of 10 mMol/L in DMSO was added to the perfusate in a concentration of 100 nmol/L for 30 min. If no cardioversion was obtained within 30 minutes, the concentration of the compound in the perfusate was increased to 300 nmol/L. If no cardioversion was obtained within an additional time period of 30 minutes, the concentration of the compound in the perfusate was increased to 1.0 μmol/L. If no cardioversion was obtained within a further time period of 30 minutes, the concentration of the compound in the perfusate was increased to 3.0 μmol/L. If no cardioversion was obtained within an additional time period of 30 minutes, the concentration of the compound in the perfusate was increased to 10.0 μmol/L. If no cardioversion was obtained within an additional time period of 30 minutes, the concentration of the compound in the perfusate was increased to 30.0 μmol/L. Cardioversion was considered obtained if sinus rhythm was obtained within 30 minutes of one of the above mentioned drug applications, and if sustained AF could not be reinduced with burst pacing stimulation immediately after this.

[4] = concentration 3.0 μM in perfusate

c1ccc(Nc2nc(-c3ccccn3)cs2)nc1 [ICA, N-(pyridin-2-yl)-4-(pyridin-2-yl)thiazol-2-amine]
reduction of AF duration as compared to time matched controls (in words) [1]: no significant reduction of AF duration; also recorded: does not cause any significant effects | Log AF duration [1]: 1.29 ± 0.15 | prolongation of aERP from baseline values as compared to time matched controls (in words) [2]: no significant prolongation of aERP; also recorded: does not cause any significant effects | percentual prolongation of aERP after 30 minutes of perfusion as compared to the baseline ([2]; pacing frequency 5 Hz): 112.5 ± 3.8% | percentual prolongation of aERP after 30 minutes of perfusion as compared to the baseline ([2]; pacing frequency 10 Hz): 119.3 ± 10.6% | cardioversion obtained (animals converted out of animals) ([3]; concentration 0.3 μM in perfusate): 4/4

COc1ccccc1OCC(O)CN1CCN(CC(=O)Nc2c(C)cccc2C)CC1 (stereo not drawn) [Ranolazine, N-(2,6-dimethylphenyl)-2-[4-[2-hydroxy-3-(2-methoxyphenoxy)-propyl]piperazin-1-yl]acetamide]
reduction of AF duration as compared to time matched controls (in words) [1]: no significant reduction of AF duration; also recorded: sub-effective | Log AF duration [1]: 1.11 ± 0.23 | prolongation of aERP from baseline values as compared to time matched controls (in words) [2]: no significant prolongation of aERP; also recorded: sub-effective | percentual prolongation of aERP after 30 minutes of perfusion as compared to the baseline ([2]; pacing frequency 5 Hz): 114.81 ± 12.7% | percentual prolongation of aERP after 30 minutes of perfusion as compared to the baseline ([2]; pacing frequency 10 Hz): 114.4 ± 9.9% | cardioversion obtained (animals converted out of animals) ([3]; concentration 1.0 μM in perfusate): 1/5 | cardioversion obtained (animals converted out of animals) [3, 4]: 2/5 | No cardioversion (animals out of animals) ([3]; stepwise 0.1 to 30.0 μM, 30 min each): 2/5

O=C(NCC1CCCCN1)c1cc(OCC(F)(F)F)ccc1OCC(F)(F)F (stereo not drawn) [Flecainide, N-(piperidin-2-ylmethyl)-2,5-bis(2,2,2-trifluoroethoxy)benzamide]
reduction of AF duration as compared to time matched controls (in words) [1]: no significant reduction of AF duration; also recorded: sub-effective | Log AF duration [1]: 1.27 ± 0.14 | prolongation of aERP from baseline values as compared to time matched controls (in words) [2]: no significant prolongation of aERP; also recorded: sub-effective | percentual prolongation of aERP after 30 minutes of perfusion as compared to the baseline ([2]; pacing frequency 5 Hz): 123.0 ± 2.6% | percentual prolongation of aERP after 30 minutes of perfusion as compared to the baseline ([2]; pacing frequency 10 Hz): 124.6 ± 8.0% | cardioversion obtained (animals converted out of animals) [3, 4]: 2/4 | cardioversion obtained (animals converted out of animals) ([3]; concentration 10.0 μM in perfusate): 2/4
